Experimental data: patent US20250320227A1, “MACROCYCLIC OREXIN RECEPTOR AGONISTS AND USES THEREOF” (Jazz Pharmaceuticals Ireland Limited, priority 2022, published 2025)

What follows are molecules tested against T1, human recombinant OX2 (hOX2) receptors expressed in CHO cells (Homo sapiens, UniProt O43614) (assay: IP-1 accumulation assay (IP-One HTRF) in hOX2-CHO cells). Settings: 60 min incubation at 37° C., mean of at least two independent experiments, read-out: EC50_OX2R Category.
T1 construct: host or cells: CHO cells (hOX2-CHO)
T1 sequence (O43614 1-444): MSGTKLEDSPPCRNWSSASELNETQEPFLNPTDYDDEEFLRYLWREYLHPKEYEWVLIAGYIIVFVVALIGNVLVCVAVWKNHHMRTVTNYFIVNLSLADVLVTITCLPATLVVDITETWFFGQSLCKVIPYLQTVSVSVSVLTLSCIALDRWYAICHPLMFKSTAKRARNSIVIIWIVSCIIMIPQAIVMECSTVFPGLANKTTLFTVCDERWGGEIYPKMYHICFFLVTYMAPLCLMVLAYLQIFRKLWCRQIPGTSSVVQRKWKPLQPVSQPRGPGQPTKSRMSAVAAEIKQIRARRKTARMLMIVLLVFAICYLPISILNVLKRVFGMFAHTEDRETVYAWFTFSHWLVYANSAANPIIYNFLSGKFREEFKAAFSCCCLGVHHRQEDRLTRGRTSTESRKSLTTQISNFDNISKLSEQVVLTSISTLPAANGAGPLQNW
Type: cell-based
Summary of the method: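 CHO cells in suspension in HBSS/20 mM HEPES pH 7.4 with 50 mM LiCl and 0.1% BSA, given compound (11-point series, 0.5% DMSO) for 60 min at 37 °C. IP-1 read by HTRF ratio, scaled to maximal OX-A response; EC50 from four-parameter fit, mean of ≥2 experiments.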
Work on `O=C1COC[C@]2(CCN3C(=O)C4(CC4)COc4cccc(F)c4[C@H]4CC[C@H](CC4)OC[C@@H]32)N1` (single isomer, unassigned) [Example 73a, (1′s,15′R,16′S,19′s)-3′-fluorodispiro [cyclopropane-1,10′-[8,18]dioxa-[12]azatetracyclo[17. 2.2.0^2,^7.0^12,^16]tricosane-15′,3″- morpholine]-2′,4′,6′-triene-5″,11′-dione] yielded an EC50 of 1000 to 10000 nM. `O=C1COC[C@@]2(CCN3C(=O)C4(CC4)COc4cccc(F)c4[C@H]4CC[C@H](CC4)OC[C@H]32)N1` (single isomer, unassigned) [Example 73b, (1′s,15′S,16′R,19′s)-3′-fluorodispiro [cyclopropane-1,10′-[8,18]dioxa-[12]azatetracyclo [17.2.2.0^2,^7.0^12,^16]tricosane-15′,3″- morpholine]-2′,4′,6′-triene-5″,11′-dione] showed an EC50 of over 10000 nM. Work on `CC1CC2(COCC(=O)N2)C2COC3CCC(CC3)c3ccncc3OCCC(=O)N12` (single isomer, unassigned) [Example 74] yielded an EC50 of under 100 nM. Molecule `CC1CC2(COCC(=O)N2)C2COC3CCC(CC3)c3ccncc3OCCC(=O)N12` (single isomer, unassigned) [Example 75] has an EC50 of over 10000 nM. Work on `O=C1COC[C@]2(CCCN3C(=O)CCCCOc4cccc(n4)[C@H]4CC[C@H](CC4)OC[C@@H]32)N1` (single isomer, unassigned) [Example 76a] yielded an EC50 of over 10000 nM. For `O=C1COC[C@@]2(CCCN3C(=O)CCCCOc4cccc(n4)[C@H]4CC[C@H](CC4)OC[C@H]32)N1` (single isomer, unassigned) [Example 76b], the EC50 was under 100 nM. For `CC1COc2ccccc2[C@H]2CC[C@H](CC2)OCC2N(CCC23COCC(=O)N3)C1=O` (stereo partly drawn) [Example 5, (1′s,3S,16′R,19′s)-10′-methyl-8′,18′-dioxa-12′-azaspiro[morpholine-3,15-′tetracyclo[17.2.2.0^2,70.0^12,16]tricosane]-2′(7′), 3′,5′-triene-5, 11′-dione], the EC50 was 100 to 1000 nM. For `C[C@@H]1C[C@@]2(COCC(=O)N2)[C@@H]2CO[C@H]3CC[C@H](CC3)c3ccccc3OCC(=O)N12` [Example 12a, (1′s,3S,12′R,15′R,18′s)-12′-methyl-8′,17′-dioxa-11′-azaspiro[morpholine-3,14′-tetracyclo[16.2.2.0^2,70.0^11,15]docosane]-2′(7′),3′,5′-triene-5,10′-dione], the EC50 was under 100 nM. For `C[C@@H]1C[C@]2(COCC(=O)N2)[C@H]2CO[C@H]3CC[C@H](CC3)c3ccccc3OCC(=O)N12` [Example 12b, (1′s,3R,12′R,15′S, 18′s)-12′-methyl-8′,17′-dioxa-11′-azaspiro[morpholine-3,14′-tetracyclo[16.2.2.0^2,70.0^11,15]docosane]-2′(7′),3′,5′-triene-5,10′-dione], the EC50 was 100 to 1000 nM. With `C[C@@H]1C[C@]2(COCC(=O)N2)[C@H]2CO[C@H]3CC[C@H](CC3)c3ccc(F)cc3OCC(=O)N12` [Example 19b, (1′s,3R,12′R,15′S, 18′s)-5′-fluoro-12′-methyl-8′,17′-dioxa-11′-azaspiro[morpholine-3,14′-tetracyclo [16.2.2.0^2,^7.0^11,^15]docosane]-2′,4′,6′-triene-5,10′-dione] the EC50 was over 10000 nM. `C[C@@H]1C[C@@]2(COCC(=O)N2)[C@@H]2CO[C@H]3CC[C@H](CC3)c3cc(F)cc(F)c3OCCC(=O)N12` [Example 25a, (1′s,3S,13′R,16′R, 19′s)-4′,6′-difluoro-13′-methyl-8′,18′-dioxa-12′-azaspiro[morpholine-3,15′-tetracyclo[17.2.2. 0^2,^7.0^12,^16]tricosane]-2′,4′,6′-triene-5,11′-dione] showed an EC50 of under 100 nM. In the case of `C[C@@H]1C[C@]2(COCC(=O)N2)[C@H]2CO[C@H]3CC[C@H](CC3)c3cc(F)cc(F)c3OCCC(=O)N12` [Example 25b, (1′s,3R,13′R,16′S, 19′s)-4′,6′-difluoro-13′-methyl-8′,18′-dioxa-12′-azaspiro[morpholine-3,15′-tetracyclo[17.2.2. 0^2,^7.0^12,^16]tricosane]-2′,4′,6′-triene-5,11′-dione], the EC50 is reported as under 100 nM. For `O=C1COCC2(CCCN3C(=O)COc4ccccc4[C@H]4CC[C@H](CC4)OCC32)N1` (stereo partly drawn) [Example 32, Rel-(1′s,3S,16′R,19′s)-8′,18′-dioxa-11′-azaspiro[morpholine-3, 15′-tetracyclo-[17.2.2.0^2,70.0^11,16]tricosane]-2′(7′),3′,5′-triene-5,10′-dione], the EC50 was under 100 nM. `O=C1COCC2(CCCN3C(=O)CCOc4ccccc4[C@H]4CC[C@H](CC4)OCC32)N1` (stereo partly drawn) [Example 33, Rel-(1′s,3S,17′R,20's)-8′,19′-dioxa-12′-azaspiro[morpholine-3,16′-tetracyclo-[18.2.2.0^2,70.0^12,17]tetracosane]-2′(7′),3′,5′-triene-5,11′-dione] gave an EC50 of under 100 nM. `O=C1COCC2(CCCN3C(=O)CCCOc4ccccc4[C@H]4CC[C@H](CC4)OCC32)N1` (stereo partly drawn) [Example 34, Rel-(1′s,3S,18′R,21′s)-8′,20′-dioxa-13′-azaspiro[morpholine-3,17′-tetracyclo[19.2.2.0^2,70.0^13,18]pentacosane]-2′(7′),3′,5′-triene-5,12′-dione] showed an EC50 of under 100 nM. In the case of `CC1Oc2ccccc2[C@H]2CC[C@H](CC2)OCC2N(CCCC23COCC(=O)N3)C1=O` (stereo partly drawn) [Example 35, Rel-(1′s,3S,16′R,19′s)-9′-methyl-8′,18′-dioxa-11′-azaspiro[morpholine-3, 15′-tetracyclo[17.2.2.0^2,70.0^11,16]tricosane]-2′(7′),3′,5′-triene-5,10′-dione], the EC50 is reported as under 100 nM. In the case of `CC1(C)Oc2ccccc2[C@H]2CC[C@H](CC2)OCC2N(CCCC23COCC(=O)N3)C1=O` (stereo partly drawn) [Example 36, Rel-(1′s,3S,16′R,19′s)-9′,9′-dimethyl-8′,18′-dioxa-11′-azaspiro[morpholine-3,15′-tetracyclo[17.2.2.0^2,70.0^11,16]tricosane]-2′(7′),3′,5′-triene-5,10′-dione], the EC50 is reported as 100 to 1000 nM. For `O=C1COCC2(CCCN3C(=O)C4(CC4)COc4ccccc4[C@H]4CC[C@H](CC4)OCC32)N1` (stereo partly drawn) [Example 37, Rel-(1′s,16′S,17′R,20's)-dispiro[cyclopropane-1,10′-[8,19]dioxa-[12]azatetracyclo[18.2.2.0^2,70.0^12,17]tetracosane-16′,3″-morpholine]-2′(7′),3′,5′-triene-5″,11′-dione], the EC50 was under 100 nM. With `O=C1COCC2(CCCN3C(=O)COc4ccc(F)cc4[C@H]4CC[C@H](CC4)OCC32)N1` (stereo partly drawn) [Example 41, Rel-(1′s,3S,16′R,19′s)-4′-fluoro-8′,18′-dioxa-11′-azaspiro[morpholine-3,15′-tetracyclo[17.2.2. 0^2,^7.0^11,^16]tricosane]-2′(7′),3′,5′-triene-5,10′-dione] the EC50 was under 100 nM. For `O=C1COCC2(CCCN3C(=O)COc4ncccc4[C@H]4CC[C@H](CC4)OCC32)N1` (stereo partly drawn) [Example 45, Rel-(1′s,3S,16′R,19′s)-8′,18′-dioxa-6′,11′-diazaspiro [morpholine-3,15′-tetracyclo[17.2.2. 0^2,^7.0^11,^16]tricosane]-2′(7′),3′,5′-triene-5,10′-dione], the EC50 was under 100 nM. In the case of `O=C1COC[C@]2(CCCN3C(=O)COc4ncccc4[C@H]4CC[C@H](CC4)OC[C@@H]32)N1` [Example 45b, (1′s,3R,16′S,19′s)-8′,18′-dioxa-6′,11′-diazaspiro [morpholine-3,15′-tetracyclo[17.2.2. 0^2,^7.0^11,^16]tricosane]-2′(7′),3′,5′-triene-5,10′-dione], the EC50 is reported as over 10000 nM.
